Reference: EPA's ToxRefDB 2

Tests used:
Conditions in all cases: Sub-acute repeat dose toxicity, Oral, Gavage/Intubation, dose end: 4 day, group: systemic
rat [1] = system: rat
rat [2] = system: rat; remark: listed apart in the source
rat [3] = system: rat; remark: listed apart in the source
rat [4] = system: rat; remark: listed apart in the source
[5] = systemic / in life observation / clinical signs / abnormal respiratory sounds + systemic / in life observation / clinical signs / fur (…
[6] = systemic / pathology microscopic / liver / necrosis
[7] = systemic / organ weight / liver / absolute
[8] = systemic / organ weight / liver / absolute + systemic / pathology microscopic / liver / necrosis

## CNCc1ccc(S(C)(=O)=O)cc1Oc1ccc(Cl)c(C)c1C
Rat [1]; [5]
  LOAEL: > 500 mg/kg/day
  NOAEL: ≥ 500 mg/kg/day
Rat [1]; [6]
  LEL: 30 mg/kg/day
  NEL: < 30 mg/kg/day
Rat [2]; [7]
  LOAEL: > 100 mg/kg/day
  NOAEL: ≥ 100 mg/kg/day
Rat [2]; [8]
  LEL: 30 mg/kg/day
  NEL: < 30 mg/kg/day
Rat [3]; [5]
  LOAEL: > 500 mg/kg/day
  NOAEL: ≥ 500 mg/kg/day
Rat [3]; [6]
  LEL: 30 mg/kg/day
  NEL: < 30 mg/kg/day
Rat [4]; [5]
  LOAEL: > 500 mg/kg/day
  NOAEL: ≥ 500 mg/kg/day
Rat [4]; [6]
  LEL: 30 mg/kg/day
  NEL: < 30 mg/kg/day
